Measurements reported in patent publication US20260078135A1, “POLYCYCLIC QUINAZOLINES FOR INHIBITION OF ERBB2” (Enliven Inc., priority 2022, published 2026).

Columns and labels:
[1] = molecular target: T1, phosphorylated EGFR (pEGFR) (Homo sapiens, UniProt P00533); test: Detection of phosphorylated EGFR (pEGFR) by AlphaLISA in EGF-stimulated A431 cells; type: cell-based; details: A431 cells (10% FBS), 4 hours incubation, EGF 30 ng/mL for 10 minutes
T1 construct: performed to measure phosphorylated EGFR levels using A431 cells (10% FBS); endogenous in cells; host or cells: A431
T1 sequence (P00533 25-1210): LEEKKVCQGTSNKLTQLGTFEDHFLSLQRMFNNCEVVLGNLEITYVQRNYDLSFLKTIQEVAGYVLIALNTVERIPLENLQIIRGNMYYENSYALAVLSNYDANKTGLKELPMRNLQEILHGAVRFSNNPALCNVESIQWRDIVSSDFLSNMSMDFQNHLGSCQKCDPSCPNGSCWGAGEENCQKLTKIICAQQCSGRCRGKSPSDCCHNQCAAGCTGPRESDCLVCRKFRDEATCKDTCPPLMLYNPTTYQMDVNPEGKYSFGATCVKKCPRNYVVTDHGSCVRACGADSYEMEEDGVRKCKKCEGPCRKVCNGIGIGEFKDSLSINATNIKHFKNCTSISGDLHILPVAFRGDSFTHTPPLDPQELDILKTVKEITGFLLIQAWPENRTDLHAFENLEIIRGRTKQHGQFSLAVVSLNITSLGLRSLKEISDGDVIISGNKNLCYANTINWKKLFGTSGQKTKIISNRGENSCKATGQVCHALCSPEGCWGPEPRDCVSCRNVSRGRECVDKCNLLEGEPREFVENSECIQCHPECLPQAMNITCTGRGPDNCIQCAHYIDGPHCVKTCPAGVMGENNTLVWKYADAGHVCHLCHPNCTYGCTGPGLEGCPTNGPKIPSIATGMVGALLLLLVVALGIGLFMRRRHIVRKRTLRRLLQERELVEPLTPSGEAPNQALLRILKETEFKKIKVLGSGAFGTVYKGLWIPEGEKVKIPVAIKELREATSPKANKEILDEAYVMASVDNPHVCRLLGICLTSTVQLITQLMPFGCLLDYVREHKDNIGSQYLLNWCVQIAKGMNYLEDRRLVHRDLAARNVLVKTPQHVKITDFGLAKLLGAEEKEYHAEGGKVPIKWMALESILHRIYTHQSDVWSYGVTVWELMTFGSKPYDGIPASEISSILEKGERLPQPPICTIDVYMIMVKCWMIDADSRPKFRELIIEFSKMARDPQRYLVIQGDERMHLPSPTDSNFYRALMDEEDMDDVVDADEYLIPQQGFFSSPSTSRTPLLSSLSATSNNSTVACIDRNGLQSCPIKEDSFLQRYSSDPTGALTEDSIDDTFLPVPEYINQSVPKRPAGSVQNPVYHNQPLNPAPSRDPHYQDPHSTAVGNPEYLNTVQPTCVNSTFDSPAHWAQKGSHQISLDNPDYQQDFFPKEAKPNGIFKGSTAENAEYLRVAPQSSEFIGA
Method in brief: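 A431 cells in 10% FBS were preincubated with compound for 4 h at 37 °C, then stimulated with 30 ng/mL EGF for 10 min and lysed. pEGFR read by AlphaLISA. % inhibition normalised to DMSO and staurosporine controls; IC50 from four-parameter curve fit.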

[2] = molecular target: Ba/F3 ERBB2 YVMA (Homo sapiens, UniProt P04626, DUP772-775, cells depend on it); test: Cell viability assay (CellTiter Glo), Ba/F3 cells engineered to express ERBB2 YVMA; type: cell-based, mouse; details: Ba/F3 cells expressing human ERBB2 YVMA mutant, 72 hours, read-out: Ba/F3 ERBB2 YVMA, IC50
Sequence of Ba/F3 ERBB2 YVMA (P04626 with tags, fused parts or gaps DUP772-775): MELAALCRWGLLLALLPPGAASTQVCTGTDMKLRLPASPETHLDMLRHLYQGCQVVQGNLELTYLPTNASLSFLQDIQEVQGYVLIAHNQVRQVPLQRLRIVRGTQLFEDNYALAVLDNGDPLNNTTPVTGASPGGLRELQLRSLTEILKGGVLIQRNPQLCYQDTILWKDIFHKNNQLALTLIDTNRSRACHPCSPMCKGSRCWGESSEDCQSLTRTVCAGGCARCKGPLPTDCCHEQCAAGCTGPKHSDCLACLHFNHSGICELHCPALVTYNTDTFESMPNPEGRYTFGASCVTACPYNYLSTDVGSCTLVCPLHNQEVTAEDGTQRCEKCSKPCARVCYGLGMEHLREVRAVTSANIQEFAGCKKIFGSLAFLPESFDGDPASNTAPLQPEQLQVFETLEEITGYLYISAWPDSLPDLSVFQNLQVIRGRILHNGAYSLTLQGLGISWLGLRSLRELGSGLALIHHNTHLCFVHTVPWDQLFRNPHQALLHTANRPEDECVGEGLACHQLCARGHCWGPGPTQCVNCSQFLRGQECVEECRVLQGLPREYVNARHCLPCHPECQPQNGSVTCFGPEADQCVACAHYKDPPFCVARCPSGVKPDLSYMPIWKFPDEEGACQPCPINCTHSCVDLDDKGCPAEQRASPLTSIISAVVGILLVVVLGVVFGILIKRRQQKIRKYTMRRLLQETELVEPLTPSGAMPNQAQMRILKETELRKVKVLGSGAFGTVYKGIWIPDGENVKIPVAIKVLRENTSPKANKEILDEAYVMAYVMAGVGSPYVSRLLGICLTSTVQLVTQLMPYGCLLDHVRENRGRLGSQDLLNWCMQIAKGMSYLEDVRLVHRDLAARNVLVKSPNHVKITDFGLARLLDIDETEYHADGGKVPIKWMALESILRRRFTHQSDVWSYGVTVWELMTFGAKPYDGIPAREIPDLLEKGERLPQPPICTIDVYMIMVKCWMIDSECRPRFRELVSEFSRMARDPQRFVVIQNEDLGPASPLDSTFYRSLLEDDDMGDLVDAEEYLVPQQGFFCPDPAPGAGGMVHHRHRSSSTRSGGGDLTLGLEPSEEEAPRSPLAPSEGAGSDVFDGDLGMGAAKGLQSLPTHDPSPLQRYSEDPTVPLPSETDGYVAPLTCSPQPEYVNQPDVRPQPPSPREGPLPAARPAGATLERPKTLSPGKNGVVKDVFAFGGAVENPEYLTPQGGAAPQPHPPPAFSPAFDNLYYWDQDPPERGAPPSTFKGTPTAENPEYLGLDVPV
Method: Cells were treated with compounds, and cell viability was measured as a metric of kinase inhibition.
BT-474, A431, MDA-MB-175VII, NCI-H1781, MCF7, and Ba/F3 cell lines were tested. The Ba/F3 cell line is IL-3-dependent mouse cell line derived from the C3H mouse strain. Ba/F3 cell lines were engineered to express human ERBB2 or EGFR kinases, rendering the cells IL-3 independent. The lines were generated via retroviral transduction utilizing a Moloney murine leukemia virus (MMLV) promoter, and constructs are stably integrated into the cell genome. The sequences of the ERBB2 and EGFR genes used were NCBI Reference Sequences NM_004448.3 and NM_005228.3, respectively.
BT-474, A431, MDA-MB-175VII, NCI-H1781 and MCF7 cells were grown in the appropriate growth medium as described in Table B2 below, and harvested at 50-80% confluence. BT-474, A431, MDA-MB-175VII, NCI-H1781 and MCF7 cells were counted and seeded at 2,000 or 1,500 cells per well in 384-well tissue culture plates (see Table B2). Similarly, Ba/F3 cell lines engineered to express EGFR, ERBB2, or ERBB2 mutants were grown, harvested, counted and seeded at 3000 cells per well in 96-well plates. A subset of wells contained media only (low control, “LC”).
Table B1 provides the growth media and number of cells seeded per well for the each cell line.
Compounds were dissolved in DMSO and serially diluted. Serially-diluted compound or a DMSO only control (high control, “HC”) was added to the plated cells in each well. Compounds were tested at concentrations of about 10 μM to 0.51 nM, using three-fold dilutions. The final proportion of DMSO never exceeded 0.1%.
Plates were placed in a 37° C., 5% CO2 incubator for 72 hours. Plates were then removed from the incubator and equilibrated for 15 minutes at room temperature. 40 μl of CellTiter Glo reagent (Promega) was added to measure the relative level of metabolically active cells by quantifying intracellular ATP concentrations. Plates were incubated for 30 minutes at room temperature, and luminescence was measured. Percent viability was normalized to a vehicle control only using the following formula: % viability=100×(Lumsample−LumLC)/(LumHC−LumLC). Graphical curves were fitted using a nonlinear regression model with a sigmoidal dose response.

[3] = molecular target: T2, phosphorylated ERBB2 (pERBB2) (Homo sapiens, UniProt P04626); test: Detection of phosphorylated ERBB2 (pERBB2) by ELISA in BT-474 cells; type: cell-based; details: four hour incubation
T2 construct: endogenous in cells; host or cells: BT-474
T2 sequence (P04626 23-1255): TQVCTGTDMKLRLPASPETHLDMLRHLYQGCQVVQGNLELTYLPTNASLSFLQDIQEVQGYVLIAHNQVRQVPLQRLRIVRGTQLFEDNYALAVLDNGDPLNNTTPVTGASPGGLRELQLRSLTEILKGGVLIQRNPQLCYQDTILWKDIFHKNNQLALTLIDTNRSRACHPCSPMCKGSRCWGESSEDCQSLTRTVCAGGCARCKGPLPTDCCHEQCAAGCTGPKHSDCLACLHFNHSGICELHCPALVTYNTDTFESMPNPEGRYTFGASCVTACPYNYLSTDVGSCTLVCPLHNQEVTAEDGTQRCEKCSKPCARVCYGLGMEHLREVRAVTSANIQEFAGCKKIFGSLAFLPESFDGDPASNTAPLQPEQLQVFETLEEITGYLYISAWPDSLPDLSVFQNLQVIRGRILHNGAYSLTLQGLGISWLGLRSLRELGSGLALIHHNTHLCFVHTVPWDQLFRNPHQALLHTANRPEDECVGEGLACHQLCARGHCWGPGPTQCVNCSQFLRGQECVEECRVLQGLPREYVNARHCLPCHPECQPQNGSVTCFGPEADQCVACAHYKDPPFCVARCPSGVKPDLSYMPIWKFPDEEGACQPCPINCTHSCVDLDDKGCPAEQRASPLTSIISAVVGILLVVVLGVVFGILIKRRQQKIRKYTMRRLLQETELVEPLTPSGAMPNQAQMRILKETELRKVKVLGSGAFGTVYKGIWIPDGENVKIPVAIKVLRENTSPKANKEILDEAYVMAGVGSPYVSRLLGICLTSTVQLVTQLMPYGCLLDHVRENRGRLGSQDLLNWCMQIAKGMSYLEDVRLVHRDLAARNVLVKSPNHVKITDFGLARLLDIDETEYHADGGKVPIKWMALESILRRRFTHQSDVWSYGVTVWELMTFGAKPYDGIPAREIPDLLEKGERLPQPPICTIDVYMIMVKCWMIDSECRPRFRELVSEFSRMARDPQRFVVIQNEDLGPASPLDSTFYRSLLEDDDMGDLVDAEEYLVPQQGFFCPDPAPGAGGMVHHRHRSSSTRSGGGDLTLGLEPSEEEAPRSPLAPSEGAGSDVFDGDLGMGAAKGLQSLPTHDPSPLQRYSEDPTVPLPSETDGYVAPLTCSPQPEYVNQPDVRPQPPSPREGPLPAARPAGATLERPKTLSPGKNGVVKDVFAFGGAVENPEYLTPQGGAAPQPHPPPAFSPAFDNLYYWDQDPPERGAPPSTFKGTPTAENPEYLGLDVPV
Method in brief: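 BT-474 cells were treated with compounds (fourfold dilutions, 10 μM to 0.01 nM final) for 4 h at 37 °C, then lysed. pERBB2 in lysates was quantified by ELISA with an HRP anti-phosphotyrosine detection antibody and TMB read at 450 nm; % relative activity was normalized to no-cell and 0.1% DMSO controls.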

Row | Structure (SMILES) | IC50 [1] [nM] | GI50 [2] [nM] | IC50 [3] [nM]
1 | C=CC(=O)N1CCN2c3ccc4ncnc(Nc5ccc(Oc6ccc7c(c6)ncn7C)c(C)c5)c4c3OC[C@H]2C1 [Compound 20, (R)-1-(4-((3-methyl-4-((1-methyl-1H-benzo[d]imidazol-5-yl)oxy)phenyl)amino)-6a,7,9,10-tetrahydropyrazino[1′,2′:4,5][1,4]oxazino[2,3-f]quinazolin-8(6H)-yl)prop-2-en-1-one] | 150 | 19.7 | 27.5
2 | Cc1cc(Nc2ncnc3ccc4c(c23)O[C@H]2CCN(C)C[C@@H]2N4)ccc1Oc1ccc2c(c1)ncn2C (relative stereo) [Compound 126, trans-9-methyl-N-(3-methyl-4-((1-methyl-1H-benzo[d]imidazol-5-yl)oxy)phenyl)-7a,8,9,10,11,11a-hexahydro-7H-pyrido[3′,4′:5,6][1,4]oxazino[2,3-f]quinazolin-1-amine] | > 10000 | 140 | 62.1
3 | Cc1cc(Nc2ncnc3cc4c(nc23)N2CCN(C)C[C@H]2CO4)ccc1Oc1ccn2ncnc2c1 [Compound 33, (S)—N-(4-([1,2,4]triazolo[1,5-a]pyridin-7-yloxy)-3-methylphenyl)-3-methyl-1,2,3,4,4a,5-hexahydropyrazino[1,2-d]pyrimido[4′,5′:5,6]pyrido[3,2-b][1,4]oxazin-11-amine] | > 10000 | 271 | 52.4
4 | C=CC(=O)N1CCN2c3cc4c(Nc5ccc(Oc6ccc7c(c6)ncn7C)c(C)c5)ncnc4cc3OC[C@H]2C1 [Compound 7, (R)-1-(11-((3-methyl-4-((1-methyl-1H-benzo[d]imidazol-5-yl)oxy)phenyl)amino)-1,2,4a,5-tetrahydropyrazino[1′,2′:4,5][1,4]oxazino[3,2-g]quinazolin-3(4H)-yl)prop-2-en-1-one] | 1780 | 112 | 30.7
5 | C=CC(=O)N1CCN2c3cc4c(Nc5ccc(Oc6ccn7ncnc7c6)c(C)c5)ncnc4cc3OC[C@@H]2C1 [Compound 3, (S)-1-(11-((4-([1,2,4]triazolo[1,5-a]pyridin-7-yloxy)-3-methylphenyl)amino)-1,2,4a,5-tetrahydropyrazino[1′,2′:4,5][1,4]oxazino[3,2-g]quinazolin-3(4H)-yl)prop-2-en-1-one] | 212 | 10.4 | 12.8
6 | CN(C)C/C=C/C(=O)N1CCN2C[C@@H]1COc1c2ccc2ncnc(Nc3ccc(Oc4ccn5ncnc5c4)cc3)c12 [Compound 77, (E)-1-((3R)-13-((4-([1,2,4]triazolo[1,5-a]pyridin-7-yloxy)phenyl)amino)-2,3,5,6-tetrahydro-4H-3,7-methano[1,4,7]oxadiazonino[2,3-f]quinazolin-4-yl)-4-(dimethylamino)but-2-en-1-one] | 460 | 14.4 | 6.51
7 | CN(C)C/C=C/C(=O)N1CCN2C[C@@H]1COc1c2ccc2ncnc(Nc3ccc(Oc4ccn5ncnc5c4)cc3F)c12 [Compound 78, (E)-1-((3R)-13-((4-([1,2,4]triazolo[1,5-a]pyridin-7-yloxy)-2-fluorophenyl)amino)-2,3,5,6-tetrahydro-4H-3,7-methano[1,4,7]oxadiazonino[2,3-f]quinazolin-4-yl)-4-(dimethylamino)but-2-en-1-one] | 341 | 10.9 | 8.87
8 | Cc1cc(Nc2ncnc3cc4c(cc23)N2CCN(C(=O)/C=C/CN(C)C)C[C@H]2CO4)ccc1Oc1ccc2c(c1)ncn2C [Compound 11, (S,E)-4-(dimethylamino)-1-(11-((3-methyl-4-((1-methyl-1H-benzo[d]imidazol-5-yl)oxy)phenyl)amino)-1,2,4a,5-tetrahydropyrazino[1′,2′:4,5][1,4]oxazino[3,2-g]quinazolin-3(4H)-yl)but-2-en-1-one] | 1180 | 65.3 | 73.3
9 | Cc1cc(Nc2ncnc3cnc4c(c23)O[C@H]2CCNC[C@H]2N4C)ccc1Oc1ccc2c(c1)ncn2C [Compound 132, (7aR,11aS)-7-methyl-N-(3-methyl-4-((1-methyl-1H-benzo[d]imidazol-5-yl)oxy)phenyl)-7a,8,9,10,11,11a-hexahydro-7H-pyrido[4,3-b]pyrimido[5′,4′:4,5]pyrido[2,3-e][1,4]oxazin-1-amine] | > 10000 | > 500 | 307
10 | Cc1cc(Nc2ncnc3cc4c(cc23)N2CCN(C(=O)/C=C/CN(C)C)C[C@@H]2CO4)ccc1Oc1ccc2c(c1)ncn2C [Compound 12, (R,E)-4-(dimethylamino)-1-(11-((3-methyl-4-((1-methyl-1H-benzo[d]imidazol-5-yl)oxy)phenyl)amino)-1,2,4a,5-tetrahydropyrazino[1′,2′:4,5][1,4]oxazino[3,2-g]quinazolin-3(4H)-yl)but-2-en-1-one] | 2840 | 206 | 83.7
11 | CC#CC(=O)N1CCN2c3nc4c(Nc5ccc(Oc6ccn7ncnc7c6)c(C)c5)ncnc4cc3OC[C@@H]2C1 [Compound 32, (S)-1-(11-((4-([1,2,4]triazolo[1,5-a]pyridin-7-yloxy)-3-methylphenyl)amino)-1,2,4a,5-tetrahydropyrazino[1,2-d]pyrimido[4′,5′:5,6]pyrido[3,2-b][1,4]oxazin-3(4H)-yl)but-2-yn-1-one] | 4770 | 18.3 | 51.4
12 | Cc1cc(Nc2ncnc3ccc4c(c23)OC[C@@H]2CN4CCN2)ccc1Oc1ccn2ncnc2c1 [Compound 49, (3S)—N-(4-([1,2,4]triazolo[1,5-a]pyridin-7-yloxy)-3-methylphenyl)-3,4,5,6-tetrahydro-2H-3,7-methano[1,4,7]oxadiazonino[2,3-f]quinazolin-13-amine] | > 10000 | > 500 | 466
13 | Cc1cc(Nc2ncnc3cc4c(nc23)N2CCNC[C@@H]2CO4)ccc1Oc1ccn2ncnc2c1 [Compound 35, (R)—N-(4-([1,2,4]triazolo[1,5-a]pyridin-7-yloxy)-3-methylphenyl)-1,2,3,4,4a,5-hexahydropyrazino[1,2-d]pyrimido[4′,5′:5,6]pyrido[3,2-b][1,4]oxazin-11-amine] | > 10000 | > 500 | 127
14 | Cc1cc(Nc2ncnc3ccc4c(c23)OC[C@@H]2CN4CCN2C(=O)/C=C/CN(C)C)ccc1Oc1ccn2ncnc2c1 [Compound 26, (E)-1-((3S)-13-((4-([1,2,4]triazolo[1,5-a]pyridin-7-yloxy)-3-methylphenyl)amino)-2,3,5,6-tetrahydro-4H-3,7-methano[1,4,7]oxadiazonino[2,3-f]quinazolin-4-yl)-4-(dimethylamino)but-2-en-1-one] | > 10000 | > 500 | 434
15 | Cc1cc(Nc2ncnc3cnc4c(c23)OC[C@H]2CN4CCN2C(=O)/C=C/CN(C)C)ccc1Oc1ccn2ncnc2c1 [Compound 82, (E)-1-((3R)-13-((4-([1,2,4]triazolo[1,5-a]pyridin-7-yloxy)-3-methylphenyl)amino)-2,3,5,6-tetrahydro-4H-3,7-methanopyrimido[5′,4′:4,5]pyrido[3,2-b][1,4,7]oxadiazonin-4-yl)-4-(dimethylamino)but-2-en-1-one] | 199 | 6.9 | 7.9
16 | Cc1cc(Nc2ncnc3ccc4c(c23)OC[C@H]2CN4CCN2C(=O)/C=C/CN(C)C)ccc1Oc1ccc2c(c1)ncn2C [Compound 31, (E)-4-(dimethylamino)-1-((3R)-13-((3-methyl-4-((1-methyl-1H-benzo[d]imidazol-5-yl)oxy)phenyl)amino)-2,3,5,6-tetrahydro-4H-3,7-methano[1,4,7]oxadiazonino[2,3-f]quinazolin-4-yl)but-2-en-1-one] | 246 | 12.6 | 19.9
